Test results taken from patent EP1200395B1, “UREA DERIVATIVES AS INHIBITORS OF CCR-3 RECEPTOR” (KIRIN BEER KABUSHIKI KAISHA, priority 1999, dated 2001).

target: T1, CCR-3 (Homo sapiens, UniProt P51677); assay: Eotaxin-induced chemotaxis of CCR-3 transfectant cells (CCR3/U937); format: cell-based; set-up: expressed in transfected cells; host or cells: U937; conditions: 6.25 µg/ml test compound; eotaxin 1 x 10^-9 M; CCR3/U937 cells (Table 3b)
T1 sequence (P51677 1-355): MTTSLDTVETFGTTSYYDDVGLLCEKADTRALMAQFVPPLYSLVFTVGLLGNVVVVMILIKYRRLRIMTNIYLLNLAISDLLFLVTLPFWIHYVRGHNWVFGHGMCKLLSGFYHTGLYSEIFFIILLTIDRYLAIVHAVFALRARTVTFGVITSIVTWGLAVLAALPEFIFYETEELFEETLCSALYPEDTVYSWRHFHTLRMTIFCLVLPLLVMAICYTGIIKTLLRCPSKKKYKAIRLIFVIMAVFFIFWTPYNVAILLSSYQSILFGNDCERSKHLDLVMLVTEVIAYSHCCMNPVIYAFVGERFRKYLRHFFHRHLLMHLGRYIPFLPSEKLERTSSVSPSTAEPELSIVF

| CCR-3 Transfectant Chemotaxis Assay 6.25 µg/ml (inhibition %) | Compound |
| --- | --- |
| 82% | O=C(NCCCN(CCc1ccc(Cl)c(Cl)c1)C[C@@H]1CCCN1)Nc1ccccc1-c1ccccc1 [Compound 116] |
| 34% | O=C(NCCCN(CCc1ccccc1)CCc1c[nH]cn1)Nc1ccc(Br)cc1 [Compound 120] |
| 56% | CCOC(=O)C1CC1CN(CCCNC(=O)Nc1cccc(Cl)c1)CCc1ccc(Cl)c(Cl)c1 (centres unmarked) [Compound 155] |
| 40% | CCN(CCCNC(=O)Nc1cccc(C)c1)CCc1ccccc1 [Compound 137] |
| 31% | CCOC(=O)C1CC1CN(CCCNC(=O)Nc1cccc(C)c1)CCc1ccccc1 (centres unmarked) [Compound 138] |

target: T1, CCR-3; assay: Calcium mobilization assay (inhibition of eotaxin-induced intracellular calcium mobilization in CCR3/HEK293 cells); format: cell-based; set-up: expressed in transfected cells; conditions: 1.25 µg/ml test compound; eotaxin 10 nM; CCR3/HEK293 cells (Table 2b)
Description: Compounds 93-162 used in this assay were synthesized by using the method described in Example 6.
CCR-3 transfectant cells (CCR3/HEK293) were isolated and resuspended with assay buffer (20 mM HEPES, 125 mM NaCl, 5 mM KCl; 0.5 mM glucose, 1 mM CaCl2, 1 mM MgCl2, 0.1 % BSA). After washing CCR3/HEK293 cells with assay buffer, cells were loaded with Fura-2/AM in assay buffer for 1 hour at room temperature. Cells were washed and resuspended with assay buffer at 5 x 10^6 cells/ml in assay buffer, and placed in a tissue culture plate (Falcon, no. 3296). Test compounds dissolved in DMSO were added to the wells, followed by eotaxin (10 nM at final concentration). Cells were excited at 340 nm and 380 nm in a fluorimeter (ARGUS50, FDSS2000, Hamamatsu Photonics) and the relative ratio of the fluorescence emitted at 510 nm was recorded. For a control, DMSO without a test compound was added. Intracellular calcium mobilization was calculated as described in Krogel C. et al. , FEBS Let. (1989) 243 , 41-46.

| Ca^2+ mobilization 1.25 µg/ml (inhibition %) | Compound |
| --- | --- |
| 72% | C=C(C)C[N+](CC)(CCCNC(=O)Nc1ccc(OC)cc1)CCc1ccc(Cl)cc1.[I-] (centres unmarked) [compound 444] |
| 71% | CC[N+](CCCNC(=O)Nc1ccc(OC)cc1)(CCc1cccc(Cl)c1)CC1CCC1.[I-] (centres unmarked) [compound 441] |
| 57% | CC[N+](CCCNC(=O)Nc1ccc(OC)cc1)(CCc1ccc(Cl)c(Cl)c1)CCC(C)C.[I-] (centres unmarked) [compound 436] |
| 63% | CC[N+](CCCNC(=O)Nc1ccc(Cl)c(Cl)c1)(CCOCCOC)CCc1ccc(Cl)c(Cl)c1.[I-] (centres unmarked) [compound 358] |
| 56% | CC[N+](CCCNC(=O)Nc1ccc(C#N)cc1)(CCc1cccc(Cl)c1)CCC(C)C.[I-] (centres unmarked) [compound 393] |
| 50% | C=C(C)C[N+](CC)(CCCNC(=O)Nc1ccc(Cl)c(Cl)c1)CCc1ccc(Cl)c(Cl)c1.[I-] (centres unmarked) [compound 367] |
| 57% | CC[N+](CCCNC(=O)Nc1ccc(Cl)c(Cl)c1)(CCOCCOC)CCc1cccc(Cl)c1.[I-] (centres unmarked) [compound 356] |
| 62% | CC[N+](CCCNC(=O)Nc1ccc(OC)cc1)(CCc1cccc(Cl)c1)CCC(C)C.[I-] (centres unmarked) [compound 435] |
| 69% | CC[N+](CCCNC(=O)Nc1ccc(C#N)cc1)(CCc1cccc(Cl)c1)CC1CCC1.[I-] (centres unmarked) [compound 397] |
| 57% | C=C(C)C[N+](CC)(CCCNC(=O)Nc1ccc(C#N)cc1)CCc1ccc(Cl)c(Cl)c1.[I-] (centres unmarked) [compound 401] |
| 68% | C=C(C)C[N+](CC)(CCCNC(=O)Nc1ccc(C#N)cc1)CCc1ccc(Cl)cc1Cl.[I-] (centres unmarked) [compound 400] |
| 63% | CC[N+](CCCNC(=O)Nc1ccc(Cl)c(Cl)c1)(CCOCCOC)CCc1ccc(Cl)cc1.[I-] (centres unmarked) [compound 355] |
| 69% | CC[N+](CCCNC(=O)Nc1ccc(OC)cc1)(CCc1ccc(Cl)c(Cl)c1)CC1CCC1.[I-] (centres unmarked) [compound 443] |
| 69% | CC[N+](CCCNC(=O)Nc1ccc(C#N)cc1)(CCOCCOC)CCc1ccc(Cl)cc1Cl.[I-] (centres unmarked) [compound 395] |
| 65% | C=C(C)C[N+](CC)(CCCNC(=O)Nc1ccc(OC)cc1)CCc1ccc(Cl)c(Cl)c1.[I-] (centres unmarked) [compound 447] |
| 66% | C=C(C)C[N+](CC)(CCCNC(=O)Nc1ccc(Cl)c(Cl)c1)CCc1ccc(Cl)cc1.[I-] (centres unmarked) [compound 364] |
| 63% | CC[N+](CCCNC(=O)Nc1ccc(OC)cc1)(CCc1ccc(Cl)cc1Cl)CC1CCC1.[I-] (centres unmarked) [compound 442] |
| 46% | C=C(C)C[N+](CC)(CCCNC(=O)Nc1ccc(Cl)c(Cl)c1)CCc1ccc(Cl)cc1Cl.[I-] (centres unmarked) [compound 366] |

| Compound | Ca^2+ mobilization 1.25 µg/ml (inhibition %) |
| --- | --- |
| CC[N+](CCCNC(=O)Nc1ccc(OC)cc1)(CCOCCOC)CCc1cccc(Cl)c1.[I-] (centres unmarked) [Compound 438, [3-(4-Methoxyphenylureido)propyl][2-(3-chlorophenyl)ethyl][2-(2-methoxyehtoxy)ethyl] ethylammonium iodide] | 70% |
| CC[N+](CCCNC(=O)Nc1ccc(C#N)cc1)(CCOCCOC)CCc1cccc(Cl)c1.[I-] (centres unmarked) [Compound 394, [3-(4-Cyanophenylureido)propyl][2-(3-chlorophenyl)ethyl][2-(2-methoxyehtoxy)ethyl] ethylammonium iodide] | 76% |

same assay, conditions: 6.25 µg/ml test compound; eotaxin 10 nM; CCR3/HEK293 cells (Table 2a)

| Ca^2+ mobilization 6.25 µg/ml (inhibition %) | Compound |
| --- | --- |
| 68% | O=C(NCCCN(CCc1ccc(Cl)c(Cl)c1)C[C@@H]1CCCN1)Nc1ccccc1-c1ccccc1 [Compound 116] |
| 57% | O=C(NCCCN(CCc1ccccc1)CCc1c[nH]cn1)Nc1ccc(Br)cc1 [Compound 120] |
| 69% | CCOC(=O)C1CC1CN(CCCNC(=O)Nc1cccc(Cl)c1)CCc1ccc(Cl)c(Cl)c1 (centres unmarked) [Compound 155] |
| 50% | CCN(CCCNC(=O)Nc1cccc(C)c1)CCc1ccccc1 [Compound 137] |
| 56% | CCOC(=O)C1CC1CN(CCCNC(=O)Nc1cccc(C)c1)CCc1ccccc1 (centres unmarked) [Compound 138] |
| 51% | O=C(O)CCCN(CCCNC(=O)Nc1cccc2ccccc12)Cc1ccc(C(F)(F)F)cc1 [Compound 161] |
| 54% | COc1ccc(CCN(CCCNC(=O)Nc2cccc(C)c2)CCCC(=O)O)cc1OC [Compound 140] |
| 50% | CSCCCN(CCCNC(=O)Nc1ccc(Cl)c(C(F)(F)F)c1)Cc1ccc2c(c1)OCO2 [Compound 94] |
| 50% | CCOC(=O)C1CC1CN(CCCNC(=O)Nc1cccc2ccccc12)CCc1ccccc1 (centres unmarked) [Compound 162] |
| 55% | CSCCCN(CCCNC(=O)Nc1ccc(Br)cc1)C1CCCc2ccccc21 (centres unmarked) [Compound 124] |
| 50% | CCN(CCCNC(=O)Nc1ccc(Cl)c(C(F)(F)F)c1)C1CCCc2ccccc21 (centres unmarked) [Compound 93] |
| 54% | Cc1ccc(CCN(CCCNC(=O)Nc2cccc(Cl)c2)CC(C)C)cc1 [Compound 151] |
| 53% | CC(C)CCN(CCCNC(=O)Nc1cccc(Cl)c1)Cc1cccs1 [Compound 145] |
| 53% | COc1cc(CN(CCCNC(=O)Nc2ccccc2-c2ccccc2)CCCSC)cc(OC)c1OC [Compound 103] |
| 53% | COc1ccc(CCN(CCCNC(=O)Nc2ccc(Cl)c(C(F)(F)F)c2)CC(C)C)cc1OC [Compound 96] |
| 55% | CC(C)CN(CCCNC(=O)Nc1ccccc1-c1ccccc1)CCC(c1ccccc1)c1ccccc1 [Compound 117] |
| 64% | Cc1cccc(NC(=O)NCCCN(CCc2ccc(Cl)c(Cl)c2)C[C@@H]2CCCN2)c1 [Compound 143] |
| 63% | COC(=O)CCCN(CCCNC(=O)Nc1cccc(Cl)c1)CCc1ccc(Cl)c(Cl)c1 [Compound 156] |
| 52% | CCOC(=O)C1CC1CN(CCCNC(=O)Nc1cccc(Cl)c1)Cc1cccs1 (centres unmarked) [Compound 146] |
| 50% | CC(C)CN(CCCNC(=O)Nc1ccc(Br)cc1)Cc1ccc(C(F)(F)F)cc1 [Compound 129] |
| 50% | COc1ccc(NC(=O)NCCCN(CCCSC)CCc2ccc(Cl)c(Cl)c2)c(OC)c1 [Compound 158] |
| 59% | O=C(NCCCN(CCOCc1ccccc1)Cc1ccc2c(c1)OCO2)Nc1ccc(Br)cc1 [Compound 127] |
| 53% | CSCCCN(CCCNC(=O)Nc1cccc(C)c1)CCc1ccc(C)cc1 [Compound 141] |
| 51% | O=C(NCCCN(CCc1ccccc1)Cc1ccco1)Nc1cccc(Cl)c1 [Compound 144] |
| 70% | O=C(NCCCN(C[C@@H]1CCCN1)C1CCCc2ccccc21)Nc1cccc(Cl)c1 (some centres unmarked) [Compound 150] |
